US20020169394A1, “Integrated tissue poration, fluid harvesting and analysis device, and method therefor” (priority 1993, published 2002)

Columns and labels:
subjects left forearm = test: Lidocaine delivery through porated stratum corneum with ultrasound; numbness assessed by rubbing a 30 gauge wire across the test site; assay type: in vivo, human
Text: A drawing of an illustrative delivery apparatus 300 is shown in FIG. 50, wherein the apparatus comprises a housing 304 enclosing a reservoir 308 for holding a drug-containing solution 312. The top portion of the housing comprises an ultrasonic transducer 316 for providing sonic energy to aid in transporting the drug-containing solution through micropores; 320 in the stratum corneum 324. A port 328 in the ultrasonic transducer permits application of pressure thereto for further aiding in transporting the drug-containing solution through the micropores in the stratum corneum. The delivery apparatus is applied to a selected area of an individual's skin such that it is positioned over at least one, and preferably a plurality, of micropores. An adhesive layer 332 attached to a lower portion of the housing permits the apparatus to adhere to the skin such that the drugcontaining solution in the reservoir is in liquid communication with the micropores.
Five subjects were tested for the effectiveness of drug delivery using poration together with ultrasound. The experiment used two sites on the subjects left forearm about three inches apart, equally spaced between the thumb and upper arm. The site near the thumb will be referred to as site 1 the site furthest from the thumb will be referred to as site 2. […] Site 2 was porated with 24 holes spaced 0.8 millimeters apart in a grid contained within a 1 cm diameter circle. The micropores in Site 2 were generated according to the procedure of Example 6. […] Ultrasound applications were made with a custom manufactured Zevex ultrasonic transducer assembly set in burst mode with 0.4 Volts peak to peak input with 1000 count bursts occurring at 10 Hz with a 65.4 kHz fundamental frequency, i.e., a pulse modulated signal with the transducer energized for 15 millisecond bursts, and then turned off for the next 85 milliseconds. The measured output of the amplifier to the transducer was 0.090 watts RMS.
Experiments were executed on both sites, Site 1 for 10 to 12 minute duration and Site 2 for two 5 minute duration intervals applied serially to the same site. Both sites were assessed for numbness using a scale of 10 to 0, where 10 indicated no numbness and 0 indicated complete numbness as reported by the test subjects.

[1] = system: human cadaver skin samples (stratum corneum); assay type: in vitro ADME
Method: Modulated sonic energy and chemical enhancers were tested for their ability to control transdermal flux on human cadaver skin samples. In these tests, the epidermal membrane had been separated from the human cadaver whole skin by the heat-separation method of Example 1. The epidermal membrane was cut and placed between two halves of the permeation cell with the stratum corneum facing either the upper (donor) compartment or lower (receiver) compartment. Modified Franz cells were used to hold the epidermis, as shown in FIG. 2 of U.S. Pat. No. 5,445,611. Each Franz cell consists of an upper chamber and a lower chamber held together with one or more clamps. The lower chamber has a sampling port through which materials can be added or removed. A sample of stratum corneum is held between the upper and lower chambers when they are clamped together. The upper chamber of each Franz cell is modified to allow an ultrasound transducer to be positioned within 1 cm of the stratum corneum membrane. Methylene blue solution was used as an indicator molecule to assess the permeation of the stratum corneum. A visual record of the process and results of each experiment was obtained in a time stamped magnetic tape format with a video camera and video cassette recorder (not shown). Additionally, samples were withdrawn for measurement with an absorption spectrometer to quantitate the amount of dye which had traversed the stratum corneum membrane during an experiment. Chemical enhancers suitable for use could vary over a wide range of solvents and/or cell envelope disordering compounds as noted above. The specific enhancer utilized was: ethanol/glycerol/water/glycerolmonooleate/methyl laurate in 50/30/15/2.5/2.5 volume ratios. The system for producing and controlling the sonic energy included a programmable 0-30 MHz arbitrary waveform generator (Stanford Reserach Systems Model DS345), a 20 watt 0-30 MHz amplifier, and two unfocused ultrasound immersion transducers having peak resonances at 15 and 25 MHz, respectively. […]

[2] = Site 2 porated plus ultrasound, after the second application

SMILES: CCN(CC)CC(=O)Nc1c(C)cccc1C [lidocaine]
- numbness, scale of 10 to 0 (10 no numbness, 0 complete numbness) (subjects left forearm; Site 1 control, no micro-poration or sonic energy, at approximately 20 minutes): 3
- numbness, scale of 10 to 0 (10 no numbness, 0 complete numbness) (subjects left forearm; Site 1 control: lidocaine and enhancer solution, no micro-poration or sonic energy, at 10 to 12 minutes, 5 subjects): 7 to 10
- diameter of totally numb circle (subjects left forearm; Site 2 porated plus ultrasound, after the second 5 minute application): about 12 cm
- diameter of numb oval pattern parallel to the forearm (subjects left forearm; [2]): 2 to 6 cm
- diameter of numb oval pattern perpendicular to the forearm (subjects left forearm; [2]): 2 to 2.5 cm
- numbness, scale of 10 to 0 (10 no numbness, 0 complete numbness) (subjects left forearm; Site 2 porated with 24 holes plus low level ultrasound, in the 1 cm circle containing the porations, first 5 minute application): 0 to 1

SMILES: CN(C)c1ccc2nc3ccc(=[N+](C)C)cc-3sc2c1 [methylene blue]
- visual evidence of dye flux through the stratum corneum [1]: No visual evidence of dye flux
- visually detectable permeation of the stratum corneum [1]: no visually detectable permeation
- level of dye solution in 2 ml of receiver medium (no visual indication of dye flux) ([1]; human, 5 min): < 0.0015 % (v/v)
